Measurements taken from patent US9724312B2, “Agent for the prevention, improvement or treatment of retinal disease” (ROHTO PHARMACEUTICAL CO., LTD., priority 2012, dated 2017).

System: rat-derived retinal ganglion cells (RGC)
Test: Neurite outgrowth inducing effect in culture system of rat-derived retinal ganglion cells
Assay type: cell-based
Details: all-trans form content 3 μM, 48 h; FIG. 2 and 3; n=4, Tukey-Kramer
From the text: The progress of visual impairment in glaucoma is associated with retinal ganglion cell (RGC) death due to blood flow failure occurring near the optic nerve (Folia Pharmacol. Jpn. 128, 255-258 (2006)). Accordingly, a culture system of rat-derived retinal neurons (Current protocols in Neuroscience 3.22.1-3.22.10, October 2010), which is widely used as one of study tools for optic nerve diseases such as a glaucoma, was used to examine the neurite outgrowth inducing effect of GGA.
Four-day-old Wistar rats (Japan SLC, Inc.) were euthanized by cervical dislocation and the eyeballs were harvested. The harvested eyeballs were immersed in 70% ethanol for 10 seconds and transferred to a Hanks' balanced salt solution containing 100 U/mL penicillin and 100 μg/mL streptomycin. Under a stereoscopic microscope, the corneas, irises, crystalline lenses, and vitreous bodies were removed using scissors for surgery and forceps, and the retinal tissue was harvested. The harvested retinal tissue was transferred to a centrifugation tube containing 5 mL of a basal medium for neuronal cells (Neurobasal, Invitrogen) containing 100 U/mL penicillin, 100 μg/mL streptomycin, a neural cell culture supplement (B27™-Supplement, Invitrogen), 1 μM L-cysteine (Kyowa Hakko Bio) and 15 U/mL papain (Sigma Aldrich) and incubated at 37° C. for 30 minutes. […]

Structure (SMILES): CC(=O)CC/C=C(\C)CC/C=C(\C)CC/C=C(\C)CCC=C(C)C [all-trans form, (5E,9E,13E)-6,10,14,18-tetramethyl-5,9,13,17-nonadecatetrae n-2-one]
- neurite inducing effect (mean length of neurites of RGC) compared with GGA 6:4 and base: significant neurite inducing effect
